The values that follow come from EP0721336B1, “BENZAZOLE COMPOUNDS FOR USE IN THERAPY” (CANCER RESEARCH CAMPAIGN TECHNOLOGY LIMITED, priority 1993, dated 1995).

Each structure is given as a SMILES string.

What all share (format): cell-based, human
One test has as its system MCF 7-ADR mammary. Put plainly: In vitro cytotoxicity and growth stimulation assay. Particulars: Homo sapiens, NCI/ADR-RES; column B; read-out: MCF7-Adr B IC50 at >micromolar concentrations. The text has this: (§1) This is illustrated in Tables 1 and 2 at the end of the present description which show in vitro test results obtained in various sets of experiments for the cytotoxic activity of this compound CJM 126 against a range of human tumour cell lines, expressed in terms of IC50 values (concentration or dosage required to reduce cell growth or proliferation by 50%) calculated from dose-effect curves plotted for cultures of the cells in question.
(§2) In carrying out the above in vitro studies, the method used for conducting the cytotoxicity assays was generally substantially as follows: • Cells were maintained in a continuous logarithmic culture in Dulbecco's medium supplemented with 10% fetal calf serum and penicillin (100 IU/ml) and streptomycin (100 µg/ml). The cells were mildly trypsinized for passage and for use in assays. On day zero, 100µl of trypsinized tumour cells (1 x 10^4/ml) were plated in the wells of 96-well flat-bottom microtiter plates. […] On day two 50µl of the highest drug concentration was added to the wells of column 12 and from there serially diluted 3-fold to column 1 by serial transfer of 50µl using an 8-channel micropipette. The final volume of column 1 was adjusted to 100µl. No additions were made to the wells of rows A and B, which served as controls. The plates were further incubated for 5 days at 37°C and 5% CO2 in air. Each compound was tested in duplicate. • On day 7 the test was terminated by the addition of 100µl saline containing 0.002% w/v propidium iodide (Sigma), 0.3% drawing ink (Staedtler "Marsmatic 745" - Trade Mark) and 0.5% Triton X-100. The plates were kept at 4°C overnight before reading on an inverted microscope equipped with an automated scanning stage. Fluorescence intensity was measured in arbitrary units by a photomultiplier. An HP-87 computer controlled the movement of the stage and also collected and processed the data from the multiplier. • For each compound tested a dose-response curve was obtained and the IC50 value (the drug concentration at 50% inhibition of cell growth) was calculated.

The test system of test [1] is MDA 468 mammary (ER-/EGFR+). As to the kind of experiment: In vitro cytotoxicity assay. Particulars: Homo sapiens, column B; read-out: MDA 468 B IC50 at >micromolar concentrations.
Text: as §1, §2

For test [2], the system named is MCF-7 mammary carcinoma cells. As to the kind of experiment: In vitro cytotoxicity assay (cell growth, propidium iodide fluorescence). Particulars: Homo sapiens, MCF-wt; column B; read-out: MCF-wt B IC50 at >micromolar concentrations.
Text: as §1, §2

With `Nc1ccc(-c2nc3cc(O)cc(O)c3s2)cc1` [DF162Eb, 2-(4-Aminophenyl)-5,7-dihydroxybenzothiazole], the figures for the IC50 (with MCF 7-ADR mammary; in test [1]; in test [2]) were 13.9 µM, 16.3 µM and 49.6 µM, respectively.
